Experimental data: patent US7291730B2, “Pyrimidine compounds and their use” (Sumitomo Chemical Company, Limited, priority 2000, dated 2007)

System: Western Flower Thrips (Frankliniella occidentalis)
Experiment: Insecticidal test against western flower thrips, sprayed cucumber leaves (Test Example 3)
Format: in vivo
Settings: 500 ppm, sprayed 20 ml/cup onto cucumber, thirty larvae on cut first foliage leaves, after 7 days
Description: A formulation of a test compound obtained in Formulation Example 5 was diluted with water so that the active ingredient concentration came to 500 ppm to prepare a test spray solution. The seeds of cucumber were planted in polyethylene cups and grown until their first foliage leaves developed, and the above test spray solution was sprayed at the rate of 20 ml/cup onto these cucumber plants. After the chemical solution sprayed onto the cucumber plants was dried, the first foliage leaves were cut off and placed on a water-containing filter paper (70 mm in diameter) in a polyethylene cup (110 mm in diameter). Thirty larvae of western flower thrips (Frankliniella occidentalis) were set free in the polyethylene cup, and the lid was put on the polyethylene cup. After 7 days, the number of surviving insects was examined.

Row | Compound | number of surviving insects
1 | CC#CCOc1cc(O[C@@H]2CCC[C@H]2C)ncn1 (relative stereo) [(169)] | zero
2 | CC#CCOc1cc(OCC#CC)ncn1 [(1)] | zero
3 | C#CCOc1cc(OCC#CC)ncn1 [(2)] | zero
4 | CCC#CCOc1cc(OCC#CCC)ncn1 [(3)] | zero
5 | C#CCOc1cc(OCC#CCC)ncn1 [(5)] | zero
6 | CC#CCOc1cc(OCC#CCC)ncn1 [(6)] | zero
7 | CC#CCOc1cc(OCC#CC(C)(C)C)ncn1 [(7)] | zero
8 | C#CCOc1cc(OCc2ccccc2)ncn1 [(13)] | zero
9 | C#CCOc1cc(Oc2cccc(Cl)c2)ncn1 [(15)] | zero
10 | CC#CCOc1cc(Oc2ccc(F)cc2Cl)ncn1 [(16)] | zero
11 | C#CCOc1cc(Oc2cccc(C(F)(F)F)c2)ncn1 [(17)] | zero
12 | C#CCOc1cc(Oc2ccccc2Cl)ncn1 [(19)] | zero
13 | C#CCOc1cc(Oc2ccc(C(F)(F)F)cc2)ncn1 [(20)] | zero
14 | C#CCOc1cc(Oc2c(F)cccc2F)ncn1 [(21)] | zero
15 | C#CCOc1cc(Oc2cccc(C)c2)ncn1 [(29)] | zero
16 | CC#CCOc1cc(Oc2cc(F)ccc2F)ncn1 [(43)] | zero

Row | Compound | number of surviving insects
17 | CC#CCOc1cc(-c2ccc(F)cc2F)ncn1 [(44)] | zero
18 | CC#CCOc1cc(Oc2c(F)cc(F)cc2F)ncn1 [(45)] | zero
19 | C#CCOc1cc(Oc2ccccc2)ncn1 [(51)] | zero
20 | C#CCOc1cc(-c2ccccc2F)ncn1 [(54)] | zero
21 | CC#CCOc1cc(-c2ccccc2F)ncn1 [(55)] | zero
22 | C#CCOc1cc(-c2ccc(F)cc2)ncn1 [(58)] | zero
23 | CC#CCOc1cc(-c2ccc(F)cc2)ncn1 [(59)] | zero
24 | CC#CCOc1cc(Oc2ccccc2F)ncn1 [(63)] | zero
25 | C#CCOc1cc(-c2ccccc2)nc(C)n1 [(77)] | zero
26 | CC#CCOc1cc(Cc2c(F)cccc2F)ncn1 [(80)] | zero
27 | C#CCOc1cc(-c2cccc(F)c2F)ncn1 [(82)] | zero
28 | CC#CCOc1cc(-c2cccc(F)c2F)ncn1 [(83)] | zero
29 | CC#CCOc1cc(Cc2ccccc2F)ncn1 [(88)] | zero
30 | C#CC(C)Oc1cc(-c2cccc(F)c2F)ncn1 (centres unmarked) [(134)] | zero
31 | C#CC(C)Oc1cc(-c2ccccc2F)ncn1 (centres unmarked) [(150)] | zero

System: not given
Experiment: not given
Settings: not given

Row | Compound | melting point [°C]
32 | CC#CCOc1cc(OCC#CC)ncn1 [present compound (1), 4,6-bis(2-butynyloxy)pyrimidine] | 82.9
33 | CC#CCOc1cc(Oc2ccc(Cl)cc2F)ncn1 [present compound (4), 4-(2-butynyloxy)-6-(4-chloro-2-fluorophenoxy)pyrimidine] | 117.7
34 | CC#CCOc1cc(OCC#CCC)ncn1 [present compound (6), 4-(2-butynyloxy)-6-(2-pentynyloxy)pyrimidine] | 67.4
35 | CC#CCOc1cc(Oc2ccc(F)c(F)c2)ncn1 [present compound (10), 4-(2-butynyloxy)-6-(3,4-difluorophenoxy)pyrimidine] | 109.7
36 | C#CCOc1cc(Oc2ccc(Cl)cc2)ncn1 [present compound (14), 4-(4-chlorophenoxy)-6-(2-propynyloxy)pyrimidine] | 100.3
37 | C#CCOc1cc(Oc2cccc(Cl)c2)ncn1 [present compound (15), 4-(3-chlorophenoxy)-6-(2-propynyloxy)pyrimidine] | 71.6
38 | C#CCOc1cc(Oc2ccccc2Cl)ncn1 [present compound (19), 4-(2-chlorophenoxy)-6-(2-propynyloxy)pyrimidine] | 76.2
39 | C#CCOc1cc(Oc2c(F)cccc2F)ncn1 [present compound (21), 4-(2,6-difluorophenoxy)-6-(2-propynyloxy)pyrimidine] | 67.2
40 | C#CCOc1cc(Oc2ccc(Cl)cc2Cl)ncn1 [present compound (22), 4-(2,4-dichlorophenoxy)-6-(2-propynyloxy)pyrimidine] | 106.7
41 | C#CCOc1cc(Oc2ccc(Cl)c(Cl)c2)ncn1 [present compound (23), 4-(3,4-dichlorophenoxy)-6-(2-propynyloxy)pyrimidine] | 109.2
42 | C#CCOc1cc(Oc2cc(Cl)cc(Cl)c2)ncn1 [present compound (24), 4-(3,5-dichlorophenoxy)-6-(2-propynyloxy)pyrimidine] | 136.5
43 | C#CCOc1cc(Oc2cc(Cl)ccc2Cl)ncn1 [present compound (25), 4-(2,5-dichlorophenoxy)-6-(2-propynyloxy)pyrimidine] | 87.7
44 | C#CCOc1cc(Oc2cccc(Cl)c2Cl)ncn1 [present compound (26), 4-(2,3-dichlorophenoxy)-6-(2-propynyloxy)pyrimidine] | 91.9
45 | C#CCOc1cc(Oc2ccccc2C)ncn1 [present compound (27), 4-(2-methylphenoxy)-6-(2-propynyloxy)pyrimidine] | 64.8
46 | C#CCOc1cc(Oc2ccc(OC)cc2)ncn1 [present compound (31), 4-(4-methoxyphenoxy)-6-(2-propynyloxy)pyrimidine] | 72
47 | CC#CCOc1cc(Oc2c(F)cccc2F)ncn1 [present compound (33), 4-(2-butynyloxy)-6-(2,6-difluorophenoxy)pyrimidine] | 79.8
48 | C#CCOc1cc(Oc2ccc(F)cc2)ncn1 [present compound (35), 4-(4-fluorophenoxy)-6-(2-propynyloxy)pyrimidine] | 81.4
49 | C#CCOc1cc(-c2ccccc2)ncn1 [present compound (37), 4-phenyl-6-(2-propynyloxy)pyrimidine] | 65.1
50 | CC#CCOc1cc(-c2ccccc2)ncn1 [present compound (38), 4-(2-butynyloxy)-6-phenylpyrimidine] | 59.6

Row | Compound | melting point [°C]
51 | CC#CCOc1cc(Oc2cccc(C#N)c2)ncn1 [present compound (40), 4-(2-butynyloxy)-6-(3-cyanophenoxy)pyrimidine] | 121.2
52 | CC#CCOc1cc(Oc2ccc(C#N)cc2)ncn1 [present compound (41), 4-(2-butynyloxy)-6-(4-cyanophenoxy)pyrimidine] | 162
53 | CC#CCOc1cc(-c2ccc(F)cc2F)ncn1 [present compound (44), 4-(2-butynyloxy)-6-(2,4-difluorophenyl)pyrimidine] | 63.9
54 | CC#CCOc1cc(Oc2c(F)cc(F)cc2F)ncn1 [present compound (45), 4-(2-butynyloxy)-6-(2,4,6-trifluorophenoxy)pyrimidine] | 60.3
55 | CC#CCOc1cc(Oc2ccc(F)c(C(F)(F)F)c2)ncn1 [present compound (48), 4-(2-butynyloxy)-6-(4-fluoro-3-trifluoromethylphenoxy)pyrimidine] | 90.1
56 | C#CCOc1cc(Oc2ccccc2)ncn1 [present compound (51), 4-phenoxy-6-(2-propynyloxy)pyrimidine] | 71.1
57 | C#CCOc1cc(OCC#C)ncn1 [present compound (52), 4,6-bis(2-propynyloxy)pyrimidine] | 74
58 | CC#CCOc1cc(Nc2ccccc2)ncn1 [present compound (53), 4-anilino-6-(2-butynyloxy)pyrimidine] | 159.3
59 | CC#CCOc1cc(Oc2cccc(F)c2)ncn1 [present compound (61), 4-(3-fluorophenoxy)-6-(2-butynyloxy)pyrimidine] | 60.1
60 | CC#CCOc1cc(Oc2ccc(F)cc2)ncn1 [present compound (62), 4-(4-fluorophenoxy)-6-(2-butynyloxy)pyrimidine] | 115.8
61 | CC#CCOc1cc(Oc2ccc([N+](=O)[O-])cc2F)ncn1 [present compound (65), 4-(2-fluoro-4-nitrophenoxy)-6-(2-butynyloxy)pyrimidine] | 132.1
62 | CC#CCOc1cc(N(C)c2cccc(F)c2F)ncn1 [present compound (66), 4-(N-methyl-N-(2,3-difluorophenyl)amino)-6-(2-butynyloxy)pyrimidine] | 77.5
63 | CC#CCOc1cc(Oc2cccc(C(C)=O)c2)ncn1 [present compound (71), 4-(2-butynyloxy)-6-(3-acetylphenoxy)pyrimidine] | 94
64 | CC#CCOc1cc(Nc2cccc(F)c2F)ncn1 [present compound (73), 4-(N-(2,3-difluorophenyl)amino)-6-(2-butynyloxy)pyrimidine] | 147.6
65 | CC#CCOc1cc(OCc2cccc(F)c2F)ncn1 [present compound (76), 4-(2,3-difluorobenzyloxy)-6-(2-butynyloxy)pyrimidine] | 84.9
66 | CC#CCOc1cc(Cc2c(F)cccc2F)ncn1 [present compound (80), 4-(2,6-difluorobenzyl)-6-(2-butynyloxy)pyrimidine] | 57.6
67 | CC#CCOc1cc(N(C)c2ccccc2)ncn1 [present compound (93), 4-(N-methyl-N-phenylamino)-6-(2-butynyloxy)pyrimidine] | 57.6
68 | CC#CCOc1cc(Cc2cccc(F)c2)ncn1 [present compound (100), 4-(2-butynyloxy)-6-(3-fluorobenzyl)pyrimidine] | 51.5
